biological target: T1, C-C chemokine receptor type 3 (Homo sapiens) (UniProt P51677); experiment: In vitro inhibitory activity against C-C chemokine receptor type 3 at 10 uM using 150p M [125I]-labeled human eotaxin
T1 sequence (whole entry): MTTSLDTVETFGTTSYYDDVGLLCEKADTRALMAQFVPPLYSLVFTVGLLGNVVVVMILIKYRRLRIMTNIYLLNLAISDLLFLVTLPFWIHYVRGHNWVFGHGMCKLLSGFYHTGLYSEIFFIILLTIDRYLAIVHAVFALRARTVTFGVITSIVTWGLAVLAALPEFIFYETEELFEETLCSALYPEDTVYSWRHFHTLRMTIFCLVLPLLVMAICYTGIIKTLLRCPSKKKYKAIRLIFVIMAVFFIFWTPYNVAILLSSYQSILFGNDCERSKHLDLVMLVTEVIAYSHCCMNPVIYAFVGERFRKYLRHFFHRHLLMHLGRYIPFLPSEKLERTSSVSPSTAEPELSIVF

SMILES | inhibition
NCCCN1CC[C@@H]2[C@H](C1)c1cccc3c1N2CC3 | 14%
O=C(NCCCCN1CC[C@@H]2[C@H](C1)c1cccc3c1N2CC3)C1CCCCC1 | 45%
Fc1ccc(CCN2CC[C@@H]3[C@H](C2)c2cccc4c2N3CC4)cc1 | 50%
NCCCCN1CC[C@@H]2[C@H](C1)c1cccc3c1N2CC3 | 5%
NCCN1CC[C@@H]2[C@H](C1)c1cccc3c1N2CC3 | 15%
Fc1ccc(CN2CC[C@@H]3[C@H](C2)c2cccc4c2N3CC4)cc1 | 15%

biological target: T2, C-C chemokine receptor type 3 (Homo sapiens, UniProt P51677); experiment: In vitro inhibition if C-C chemokine receptor type 3 (CCR3) using 150p M [125I]-labeled human eotaxin
T2 sequence (P51677 whole entry): T1 sequence (whole entry)

SMILES | IC50
COc1cccc(NC(=O)NCCCN2CCC(Cc3ccc(F)cc3)CC2)c1 | 30 nM
COc1cccc(NC(=O)N2CCCC(CCN3CCC(Cc4ccc(F)cc4)CC3)C2)c1 (racemic) | 250 nM
N#Cc1cccc(NC(=O)NCCN2CCC(Cc3ccccc3)CC2)c1 | 500 nM
CC(=O)c1cccc(NC(=O)NCCCN2CC[C@H](Cc3ccccc3)C[C@@H]2Cc2ccccc2)c1 | 200 nM
O=C(CCCN1CC[C@@H]2[C@H](C1)c1cccc3c1N2CC3)c1ccc(F)cc1 | 1100 nM
O=C(NCCCN1CCC(Cc2ccc(F)cc2)CC1)NC1CCCCC1 | 100 nM
CC(=O)c1cccc(NC(=O)NCCCN2CC[C@H](Cc3ccccc3)C[C@@H]2[C@H](C)O)c1 | 20 nM
CC(=O)c1cccc(NC(=O)NCCCN2CC[C@H](Cc3ccccc3)C[C@@H]2C(C)(C)O)c1 | 200 nM
CC(=O)c1cccc(NC(=O)NCCCN2CC[C@H](Cc3ccccc3)C[C@@H]2C(C)(O)O)c1 | 50 nM
CS(=O)(=O)c1ccc(NC(=O)NCCCN2CCC(Cc3ccc(F)cc3)CC2)cc1 | 70 nM
CC(=O)c1cccc(NC(=O)NCCCN2CCC(Cc3ccc(F)cc3)CC2)c1 | 10 nM
COc1cccc(C(=O)NCCCCN2CC[C@@H]3[C@H](C2)c2cccc4c2N3CC4)c1 | 8100 nM
O=C(NCCCN1CC[C@@H]2[C@H](C1)c1cccc3c1N2CC3)c1ccc(F)cc1 | 5500 nM
Cc1ccc(CC2CCN(CCCNC(=O)Nc3cccc(C#N)c3)CC2)cc1 | 500 nM
N#Cc1cccc(NC(=O)NCCCCCN2CCC(Cc3ccccc3)CC2)c1 | 1200 nM
O=C(NCCCCN1CC[C@@H]2[C@H](C1)c1cccc3c1N2CC3)C1CCCCC1 | 11000 nM
CC[C@H](O)[C@H]1C[C@@H](Cc2ccccc2)CCN1CCCNC(=O)Nc1cccc(C(C)=O)c1 (stereo in doubt; 85) | 6 nM
O=C(NCCCCN1CCC(Cc2ccccc2)CC1)c1ccc(F)cc1 | 1000 nM
COc1cccc(NC(=O)N2CCC(CN3CCC(Cc4ccc(F)cc4)CC3)C2)c1 (racemic) | 240 nM
CCC[C@H](O)[C@H]1C[C@@H](Cc2ccccc2)CCN1CCCNC(=O)Nc1cccc(C(C)=O)c1 | 7 nM
N#Cc1ccc(NC(=O)NCCCN2CCC(Cc3ccc(F)cc3)CC2)cc1 | 20 nM

SMILES | IC50
O=C(NCCCN1CCC(Cc2ccc(F)cc2)CC1)Nc1ccccc1[N+](=O)[O-] | 89 nM
O=S(=O)(NCCCCN1CC[C@@H]2[C@H](C1)c1cccc3c1N2CC3)c1ccc(F)cc1 | 6400 nM
CC(=O)c1cccc(NC(=O)NCCCN2CC[C@H](Cc3ccccc3)C[C@@H]2[C@@H](O)C(C)C)c1 | 50 nM
O=C(NCCCN1CCC(Cc2ccc(F)cc2)CC1)Nc1ccccc1C(F)(F)F | 200 nM
C[S+]([O-])c1cccc(NC(=O)NCCCN2CCC(Cc3ccc(F)cc3)CC2)c1 (centres undefined) | 50 nM
C[S+]([O-])c1ccc(NC(=O)NCCCN2CCC(Cc3ccc(F)cc3)CC2)cc1 (centres undefined) | 200 nM
O=C(NCCCN1CC[C@@H]2[C@H](C1)c1cccc3c1N2CC3)Nc1ccc(I)cc1 | 1500 nM
O=C(NCCCN1CCC(Cc2ccc(F)cc2)CC1)Nc1cccc(-c2cccs2)c1 | 200 nM
O=C(NCCCN1CCC(Cc2ccc(F)cc2)CC1)Nc1ccccc1 | 30 nM
O=C(NCCCCN1CCC(Cc2ccccc2)CC1)c1ccccc1 | 800 nM
CC(=O)c1cccc(NC(=O)NCCCN2CC[C@H](Cc3ccccc3)C[C@@H]2[C@H](O)C(C)C)c1 | 100 nM
O=C(NCCCN1CCC(Cc2ccc(F)cc2)CC1)Nc1cccc(C(F)(F)F)c1 | 70 nM
N#Cc1cccc(NC(=O)NCCCN2CCC(Cc3ccc(Cl)cc3)CC2)c1 | 20 nM
O=C(NCCCN1CCC(Cc2ccccc2)CC1)Nc1ccccc1 | 400 nM
CN(C)c1ccc(NC(=O)NCCCN2CC[C@@H]3[C@H](C2)c2cccc4c2N3CC4)cc1 | 4800 nM
O=C(NCCCN1CCC(Cc2ccc(F)cc2)CC1)NC12CC3CC(CC(C3)C1)C2 | 90 nM
O=C(NCCCN1CCC(Cc2ccc(F)cc2)CC1)Nc1ccc([N+](=O)[O-])cc1 | 7 nM
CSc1ccc(NC(=O)NCCCN2CCC(Cc3ccc(F)cc3)CC2)cc1 | 40 nM
COc1cccc(NC(=O)N2CCCCC2CN2CCC(Cc3ccc(F)cc3)CC2)c1 (racemic) | 170 nM
CC(=O)c1cccc(NC(=O)NCCCN2CC[C@H](Cc3ccccc3)C[C@@H]2[C@@H](O)CC(C)C)c1 | 20 nM
CSc1cccc(NC(=O)NCCCN2CCC(Cc3ccc(F)cc3)CC2)c1 | 20 nM

SMILES | IC50
COc1ccccc1C(=O)NCCCCN1CC[C@@H]2[C@H](C1)c1cccc3c1N2CC3 | 6800 nM
CC[C@@H](O)[C@H]1C[C@@H](Cc2ccccc2)CCN1CCCNC(=O)Nc1cccc(C(C)=O)c1 | 50 nM
O=C(NCCCCN1CC[C@@H]2[C@H](C1)c1cccc3c1N2CC3)c1ccc(F)cc1 | 3900 nM
N#Cc1ccc(C(=O)NCCCCN2CCC(Cc3ccccc3)CC2)cc1 | 1300 nM
COc1cccc(NC(=O)N2CCCC(N3CCC(Cc4ccc(F)cc4)CC3)C2)c1 (racemic) | 530 nM
N#Cc1cccc(NC(=O)NCCCCN2CCC(Cc3ccccc3)CC2)c1 | 500 nM
CCCC[C@H](O)[C@H]1C[C@@H](Cc2ccc(F)cc2)CCN1CCCNC(=O)Nc1cccc(C(C)=O)c1 | 5 nM
O=C(NCCCN1CCC(Cc2ccc(F)cc2)CC1)Nc1cccc(-c2ccco2)c1 | 100 nM
CC[C@H](O)[C@H]1C[C@@H](Cc2ccccc2)CCN1CCCNC(=O)Nc1cccc(C(C)=O)c1 (stereo in doubt) | 8 nM
N#Cc1cccc(NC(=O)NCCCN2CCC(Cc3ccc(F)cc3)CC2)c1 | 20 nM
O=S(=O)(NCCCN1CC[C@@H]2[C@H](C1)c1cccc3c1N2CC3)c1ccc(F)cc1 | 10100 nM
N#Cc1cccc(NC(=O)NCCCN2CC[C@@H]3[C@H](C2)c2cccc4c2N3CC4)c1 | 700 nM
O=C(NCCN1CC[C@@H]2[C@H](C1)c1cccc3c1N2CC3)c1ccc(F)cc1 | 8300 nM
COc1cccc(NC(=O)N2CCC(CN3CCC(Cc4ccccc4)CC3)CC2)c1 | 1600 nM
N#Cc1cccc(NC(=O)NCCCN2CCC(Cc3ccccc3)CC2)c1 | 200 nM
O=C(NCCCN1CCC(Cc2ccc(F)cc2)CC1)Nc1cccc([N+](=O)[O-])c1 | 9 nM
CC(=O)c1cccc(NC(=O)NCCCN2CC[C@H](Cc3ccccc3)C[C@@H]2[C@H](O)CC(C)C)c1 | 60 nM
CS(=O)(=O)c1cccc(NC(=O)NCCCN2CCC(Cc3ccc(F)cc3)CC2)c1 | 20 nM
COc1cccc(NC(=O)N2CCC(N3CCC(Cc4ccccc4)CC3)CC2)c1 | 2300 nM
COc1ccc(C(=O)NCCCCN2CC[C@@H]3[C@H](C2)c2cccc4c2N3CC4)cc1 | 5100 nM
O=C(NCCCN1CC[C@@H]2[C@H](C1)c1cccc3c1N2CC3)Nc1cccc(I)c1 | 1100 nM

SMILES | IC50
CCC[C@H]1C[C@@H](Cc2ccccc2)CCN1CCCNC(=O)Nc1cccc(C(C)=O)c1 (stereo in doubt) | 200 nM
O=C(NCCCN1CCC(Cc2ccc(F)cc2)CC1)Nc1cccc(-c2ncc[nH]2)c1 | 100 nM
COc1cccc(NC(=O)N2CCO[C@@H](CN3CCC(Cc4ccc(F)cc4)CC3)C2)c1 | 260 nM
COc1cccc(NC(=O)NCCCN2CCC(Cc3ccccc3)CC2)c1 | 300 nM
Cn1nnnc1-c1cccc(NC(=O)NCCCN2CCC(Cc3ccc(F)cc3)CC2)c1 | 5 nM
COc1cccc(C(=O)NCCCCN2CCC(Cc3ccccc3)CC2)c1 | 1200 nM
O=C(NCCCN1CCC(Cc2ccc(F)cc2)CC1)NCc1ccccc1 | 400 nM
CN(C)c1ccc(NC(=O)NCCCN2CCC(Cc3ccccc3)CC2)cc1 | 1600 nM
N#Cc1cccc(NC(=O)NCCCN2CCC(Cc3ccccc3F)CC2)c1 | 200 nM
COc1cccc(NC(=O)N2CCCC(CN3CCC(Cc4ccccc4)CC3)C2)c1 (racemic) | 330 nM
CCCC[C@H](O)[C@H]1C[C@@H](Cc2ccccc2)CCN1CCCNC(=O)Nc1cccc(C(C)=O)c1 (stereo in doubt; form 2) | 80 nM
CC(=O)c1ccc(NC(=O)NCCCN2CCC(Cc3ccc(F)cc3)CC2)cc1 | 200 nM
COc1cccc(NC(=O)N2CCO[C@H](CN3CCC(Cc4ccc(F)cc4)CC3)C2)c1 | 30 nM
O=C(NCCCN1CCC(Cc2ccccc2)CC1)Nc1ccc(C(F)(F)F)cc1 | 1200 nM
CCCC[C@H](O)[C@H]1C[C@@H](Cc2ccccc2)CCN1CCCNC(=O)Nc1cccc(C(C)=O)c1 (stereo in doubt; form 1) | 1 nM
O=C(NCCCN1CCC(Cc2ccc(F)cc2)CC1)Nc1ccc(C(F)(F)F)cc1 | 60 nM
O=C(NCCCN1CC[C@@H]2[C@H](C1)c1cccc3c1N2CC3)Nc1ccc(C(F)(F)F)cc1 | 3700 nM
CCCC[C@H](O)[C@H]1C[C@@H](Cc2ccccc2)CCN1CCCNC(=O)Nc1cccc(-c2nnnn2C)c1 | 1 nM
O=C(NCCCN1CCC(Cc2ccc(F)cc2)CC1)NCCc1ccccc1 | 300 nM
CCC[C@H]1C[C@@H](Cc2ccccc2)CCN1CCCNC(=O)Nc1cccc(C(C)=O)c1 (stereo in doubt; 79) | 100 nM

— ChEMBL document CHEMBL1136024, “CCR3 antagonists: a potential new therapy for the treatment of asthma. Discovery and structure-activity relationships” (Bioorg Med Chem Lett, 2002)
